Test results: ChEMBL document CHEMBL5352506, “The Zinc-Binding Group Effect: Lessons from Non-Hydroxamic Acid Vorinostat Analogs” (J Med Chem, 2023)

What was measured:
[1] = system: HRT-18 cell line; test: Antiproliferative activity against human HRT-18 cell line assessed as cell growth inhibition measured after 72 hrs by MTT assay; assay type: functional, cell-based; settings: HRT-18, 72 h
[2] = Antiproliferative activity against human HC-04 cells assessed as cell growth inhibition measured after 72 hrs by MTT assay; assay type: functional, cell-based; settings: HC04, 72 h
[3] = system: HBL-100; test: Cytotoxicity against human HBL-100 cells assessed as cell growth inhibition; assay type: toxicity, cell-based
[4] = target: Histone deacetylase (HDAC1 and HDAC2) (Homo sapiens, UniProt Q13547+Q92769); test: Inhibition of HDAC1/2 in human K562 nuclear extraction; assay type: cell-free
[5] = target: Histone deacetylase 2 (Homo sapiens, UniProt Q92769)
[6] = target: Histone deacetylase 4 (Homo sapiens, UniProt P56524); test: Inhibition of human recombinant HDAC4
[7] = target: Histone deacetylase 5 (Homo sapiens, UniProt Q9UQL6); test: Inhibition of human recombinant HDAC5
[8] = target: T1, Histone deacetylase 7 (Homo sapiens, UniProt Q8WUI4); test: Inhibition of human recombinant HDAC7
T1 sequence (Q8WUI4 whole entry): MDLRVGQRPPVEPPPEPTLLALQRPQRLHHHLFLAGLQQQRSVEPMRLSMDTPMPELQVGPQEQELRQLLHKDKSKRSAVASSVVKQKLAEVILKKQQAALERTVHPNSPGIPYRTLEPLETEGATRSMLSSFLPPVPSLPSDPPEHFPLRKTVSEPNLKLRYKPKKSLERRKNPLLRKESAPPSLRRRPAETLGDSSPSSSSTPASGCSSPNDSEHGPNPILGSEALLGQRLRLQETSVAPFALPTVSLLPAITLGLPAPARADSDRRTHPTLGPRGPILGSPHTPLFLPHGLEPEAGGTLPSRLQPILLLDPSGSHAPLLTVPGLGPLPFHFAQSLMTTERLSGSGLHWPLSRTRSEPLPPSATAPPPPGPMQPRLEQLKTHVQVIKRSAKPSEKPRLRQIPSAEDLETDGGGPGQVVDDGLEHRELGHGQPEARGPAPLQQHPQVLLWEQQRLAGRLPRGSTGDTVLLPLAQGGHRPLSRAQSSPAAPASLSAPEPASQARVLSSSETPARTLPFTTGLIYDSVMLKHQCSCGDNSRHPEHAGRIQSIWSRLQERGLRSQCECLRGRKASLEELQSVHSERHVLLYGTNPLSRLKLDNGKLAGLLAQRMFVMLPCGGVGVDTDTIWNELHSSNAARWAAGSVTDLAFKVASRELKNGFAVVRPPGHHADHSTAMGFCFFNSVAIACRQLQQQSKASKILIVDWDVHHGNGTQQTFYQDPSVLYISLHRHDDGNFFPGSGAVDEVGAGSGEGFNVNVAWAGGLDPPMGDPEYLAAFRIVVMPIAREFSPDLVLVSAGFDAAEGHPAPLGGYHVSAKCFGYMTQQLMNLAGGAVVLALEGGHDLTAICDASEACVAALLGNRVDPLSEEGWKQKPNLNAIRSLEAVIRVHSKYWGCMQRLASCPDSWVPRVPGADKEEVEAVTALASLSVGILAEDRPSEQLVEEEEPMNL

[9] = target: T2, Protein deacetylase HDAC6 (Homo sapiens, UniProt Q9UBN7); test: Inhibition of human recombinant HDAC6
T2 sequence (Q9UBN7 whole entry): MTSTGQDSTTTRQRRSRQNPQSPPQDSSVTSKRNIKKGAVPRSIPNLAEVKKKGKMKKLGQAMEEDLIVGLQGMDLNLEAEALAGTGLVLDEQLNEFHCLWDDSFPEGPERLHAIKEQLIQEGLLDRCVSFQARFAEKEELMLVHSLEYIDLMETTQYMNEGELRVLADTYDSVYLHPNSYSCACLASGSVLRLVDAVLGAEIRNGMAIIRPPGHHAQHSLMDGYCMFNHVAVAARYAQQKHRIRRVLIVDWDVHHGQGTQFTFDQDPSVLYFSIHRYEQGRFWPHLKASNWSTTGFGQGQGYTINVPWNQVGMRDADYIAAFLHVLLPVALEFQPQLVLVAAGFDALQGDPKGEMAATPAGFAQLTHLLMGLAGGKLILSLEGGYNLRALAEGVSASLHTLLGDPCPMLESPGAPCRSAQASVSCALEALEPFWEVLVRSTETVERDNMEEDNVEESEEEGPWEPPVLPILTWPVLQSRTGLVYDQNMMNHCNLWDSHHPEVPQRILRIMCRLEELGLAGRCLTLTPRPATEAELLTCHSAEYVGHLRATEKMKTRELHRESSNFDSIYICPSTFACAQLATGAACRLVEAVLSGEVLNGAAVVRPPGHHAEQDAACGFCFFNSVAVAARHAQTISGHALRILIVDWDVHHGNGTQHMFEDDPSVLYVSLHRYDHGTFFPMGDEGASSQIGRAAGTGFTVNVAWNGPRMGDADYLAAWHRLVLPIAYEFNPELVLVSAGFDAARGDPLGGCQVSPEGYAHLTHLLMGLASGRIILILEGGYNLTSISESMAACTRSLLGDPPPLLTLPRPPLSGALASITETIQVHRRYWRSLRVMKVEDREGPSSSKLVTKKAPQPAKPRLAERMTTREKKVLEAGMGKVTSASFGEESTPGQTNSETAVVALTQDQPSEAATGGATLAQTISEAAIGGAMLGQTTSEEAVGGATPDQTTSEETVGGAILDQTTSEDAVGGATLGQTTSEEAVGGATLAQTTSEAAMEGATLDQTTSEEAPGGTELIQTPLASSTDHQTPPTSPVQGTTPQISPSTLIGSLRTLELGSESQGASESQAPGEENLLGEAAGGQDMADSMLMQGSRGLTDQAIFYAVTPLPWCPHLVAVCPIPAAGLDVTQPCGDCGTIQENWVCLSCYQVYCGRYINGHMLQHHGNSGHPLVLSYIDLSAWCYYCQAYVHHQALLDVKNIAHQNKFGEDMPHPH

[10] = target: Histone deacetylase 3 (Homo sapiens, UniProt O15379); test: Inhibition of human recombinant HDAC3
[11] = target: T3, Histone deacetylase 8 (Homo sapiens, UniProt Q9BY41); test: Inhibition of human recombinant HDAC8
T3 sequence (Q9BY41 whole entry): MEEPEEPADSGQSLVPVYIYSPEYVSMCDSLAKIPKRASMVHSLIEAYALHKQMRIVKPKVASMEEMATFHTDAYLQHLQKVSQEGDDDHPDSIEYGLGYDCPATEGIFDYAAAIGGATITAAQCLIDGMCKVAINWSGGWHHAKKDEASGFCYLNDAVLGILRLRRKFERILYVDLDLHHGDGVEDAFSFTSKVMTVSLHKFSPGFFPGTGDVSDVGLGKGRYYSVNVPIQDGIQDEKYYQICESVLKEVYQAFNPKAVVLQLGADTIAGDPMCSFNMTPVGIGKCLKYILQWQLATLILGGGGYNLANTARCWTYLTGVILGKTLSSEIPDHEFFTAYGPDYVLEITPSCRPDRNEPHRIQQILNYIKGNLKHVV

[12] = target: T4, Polyamine deacetylase HDAC10 (Homo sapiens, UniProt Q969S8); test: Inhibition of human recombinant HDAC10
T4 sequence (Q969S8 whole entry): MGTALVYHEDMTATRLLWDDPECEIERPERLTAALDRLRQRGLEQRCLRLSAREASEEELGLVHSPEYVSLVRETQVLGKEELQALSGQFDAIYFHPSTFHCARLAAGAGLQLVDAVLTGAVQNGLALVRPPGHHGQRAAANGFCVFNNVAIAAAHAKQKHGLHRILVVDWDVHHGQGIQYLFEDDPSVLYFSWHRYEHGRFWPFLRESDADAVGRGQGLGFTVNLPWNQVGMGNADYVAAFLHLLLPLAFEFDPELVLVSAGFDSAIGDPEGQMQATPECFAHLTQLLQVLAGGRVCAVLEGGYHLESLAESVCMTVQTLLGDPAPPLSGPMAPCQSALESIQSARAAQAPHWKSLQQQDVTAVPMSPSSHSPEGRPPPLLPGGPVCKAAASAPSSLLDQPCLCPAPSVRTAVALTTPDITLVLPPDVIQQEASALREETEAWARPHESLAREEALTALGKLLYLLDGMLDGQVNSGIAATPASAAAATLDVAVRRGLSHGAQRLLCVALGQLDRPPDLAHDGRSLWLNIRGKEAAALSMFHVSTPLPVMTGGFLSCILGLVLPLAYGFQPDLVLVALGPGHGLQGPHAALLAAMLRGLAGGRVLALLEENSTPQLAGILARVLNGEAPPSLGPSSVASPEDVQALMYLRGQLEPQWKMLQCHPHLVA

[13] = target: T5, Histone deacetylase 11 (Homo sapiens, UniProt Q96DB2); test: Inhibition of human recombinant HDAC11
T5 sequence (Q96DB2 whole entry): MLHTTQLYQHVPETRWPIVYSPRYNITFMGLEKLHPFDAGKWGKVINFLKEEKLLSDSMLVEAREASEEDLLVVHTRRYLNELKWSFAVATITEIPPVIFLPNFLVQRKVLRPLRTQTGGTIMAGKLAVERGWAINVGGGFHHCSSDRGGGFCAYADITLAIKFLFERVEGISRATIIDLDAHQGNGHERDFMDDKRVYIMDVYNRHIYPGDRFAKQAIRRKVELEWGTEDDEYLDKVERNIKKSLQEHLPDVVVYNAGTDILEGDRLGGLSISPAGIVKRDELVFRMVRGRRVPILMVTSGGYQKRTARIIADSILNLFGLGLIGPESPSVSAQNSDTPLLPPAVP

[14] = target: Histone deacetylase; assay type: cell-based, Homo sapiens; settings: hela
[15] = system: Toxoplasma gondii; test: Antiparasitic activity against Toxoplasma gondii assessed as parasitic growth inhibition; assay type: functional, organism-based
[16] = target: T6, Histone deacetylase 1 (Homo sapiens, UniProt Q13547); test: Inhibition of human recombinant HDAC1
[17] = target: T6, Histone deacetylase 1; test: Inhibition of HDAC1 (unknown origin); settings: pooled result: one value given for 7 cell lines, strains, targets or settings
[18] = Dissociation constant, pKa of the compound; assay type: physicochemical
[19] = target: Histone deacetylase; test: Inhibition of HDAC (unknown origin); assay type: protein assay, Homo sapiens
[20] = target: Histone deacetylase 9 (Homo sapiens, UniProt Q9UKV0); test: Inhibition of human recombinant HDAC9
Sequence of Histone deacetylase 9 (Q9UKV0 whole entry): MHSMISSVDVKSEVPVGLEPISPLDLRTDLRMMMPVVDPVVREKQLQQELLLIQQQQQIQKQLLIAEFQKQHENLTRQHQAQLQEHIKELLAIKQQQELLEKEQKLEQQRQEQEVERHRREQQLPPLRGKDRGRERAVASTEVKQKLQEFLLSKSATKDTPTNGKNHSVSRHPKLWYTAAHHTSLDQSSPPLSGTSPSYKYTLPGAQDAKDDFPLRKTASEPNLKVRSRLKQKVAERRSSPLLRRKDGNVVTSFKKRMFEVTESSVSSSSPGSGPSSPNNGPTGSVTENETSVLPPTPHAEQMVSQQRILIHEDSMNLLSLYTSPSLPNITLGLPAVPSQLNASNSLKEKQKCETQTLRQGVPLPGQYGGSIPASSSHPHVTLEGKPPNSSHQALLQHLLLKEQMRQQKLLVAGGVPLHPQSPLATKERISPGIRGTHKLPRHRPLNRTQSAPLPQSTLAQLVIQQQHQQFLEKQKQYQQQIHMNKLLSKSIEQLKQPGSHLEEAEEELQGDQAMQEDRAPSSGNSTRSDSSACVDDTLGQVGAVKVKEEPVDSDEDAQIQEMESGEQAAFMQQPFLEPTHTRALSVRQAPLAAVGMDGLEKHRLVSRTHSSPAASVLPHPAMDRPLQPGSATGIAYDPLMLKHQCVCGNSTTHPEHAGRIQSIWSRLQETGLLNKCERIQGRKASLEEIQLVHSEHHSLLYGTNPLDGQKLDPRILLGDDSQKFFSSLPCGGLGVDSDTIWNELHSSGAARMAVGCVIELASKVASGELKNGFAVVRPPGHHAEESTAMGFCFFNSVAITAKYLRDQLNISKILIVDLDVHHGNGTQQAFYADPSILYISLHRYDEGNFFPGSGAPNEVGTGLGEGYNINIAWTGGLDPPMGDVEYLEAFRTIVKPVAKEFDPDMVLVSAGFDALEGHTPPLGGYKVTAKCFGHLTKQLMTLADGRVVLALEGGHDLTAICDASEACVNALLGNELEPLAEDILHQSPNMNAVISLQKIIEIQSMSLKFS

T6 sequence (Q13547 whole entry): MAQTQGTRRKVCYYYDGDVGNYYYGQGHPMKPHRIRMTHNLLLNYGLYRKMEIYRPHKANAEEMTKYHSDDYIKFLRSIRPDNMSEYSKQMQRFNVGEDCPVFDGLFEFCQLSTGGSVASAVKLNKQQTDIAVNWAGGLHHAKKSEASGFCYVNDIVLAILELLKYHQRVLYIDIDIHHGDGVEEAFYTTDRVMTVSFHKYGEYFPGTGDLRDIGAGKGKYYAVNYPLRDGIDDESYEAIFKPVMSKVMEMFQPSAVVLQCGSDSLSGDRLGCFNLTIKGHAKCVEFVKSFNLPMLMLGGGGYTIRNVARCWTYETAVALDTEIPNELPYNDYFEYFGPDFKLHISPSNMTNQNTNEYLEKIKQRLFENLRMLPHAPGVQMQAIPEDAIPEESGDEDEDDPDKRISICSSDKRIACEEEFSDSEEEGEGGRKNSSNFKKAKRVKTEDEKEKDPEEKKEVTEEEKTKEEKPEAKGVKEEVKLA
Sequence of Histone deacetylase 5 (Q9UQL6 whole entry): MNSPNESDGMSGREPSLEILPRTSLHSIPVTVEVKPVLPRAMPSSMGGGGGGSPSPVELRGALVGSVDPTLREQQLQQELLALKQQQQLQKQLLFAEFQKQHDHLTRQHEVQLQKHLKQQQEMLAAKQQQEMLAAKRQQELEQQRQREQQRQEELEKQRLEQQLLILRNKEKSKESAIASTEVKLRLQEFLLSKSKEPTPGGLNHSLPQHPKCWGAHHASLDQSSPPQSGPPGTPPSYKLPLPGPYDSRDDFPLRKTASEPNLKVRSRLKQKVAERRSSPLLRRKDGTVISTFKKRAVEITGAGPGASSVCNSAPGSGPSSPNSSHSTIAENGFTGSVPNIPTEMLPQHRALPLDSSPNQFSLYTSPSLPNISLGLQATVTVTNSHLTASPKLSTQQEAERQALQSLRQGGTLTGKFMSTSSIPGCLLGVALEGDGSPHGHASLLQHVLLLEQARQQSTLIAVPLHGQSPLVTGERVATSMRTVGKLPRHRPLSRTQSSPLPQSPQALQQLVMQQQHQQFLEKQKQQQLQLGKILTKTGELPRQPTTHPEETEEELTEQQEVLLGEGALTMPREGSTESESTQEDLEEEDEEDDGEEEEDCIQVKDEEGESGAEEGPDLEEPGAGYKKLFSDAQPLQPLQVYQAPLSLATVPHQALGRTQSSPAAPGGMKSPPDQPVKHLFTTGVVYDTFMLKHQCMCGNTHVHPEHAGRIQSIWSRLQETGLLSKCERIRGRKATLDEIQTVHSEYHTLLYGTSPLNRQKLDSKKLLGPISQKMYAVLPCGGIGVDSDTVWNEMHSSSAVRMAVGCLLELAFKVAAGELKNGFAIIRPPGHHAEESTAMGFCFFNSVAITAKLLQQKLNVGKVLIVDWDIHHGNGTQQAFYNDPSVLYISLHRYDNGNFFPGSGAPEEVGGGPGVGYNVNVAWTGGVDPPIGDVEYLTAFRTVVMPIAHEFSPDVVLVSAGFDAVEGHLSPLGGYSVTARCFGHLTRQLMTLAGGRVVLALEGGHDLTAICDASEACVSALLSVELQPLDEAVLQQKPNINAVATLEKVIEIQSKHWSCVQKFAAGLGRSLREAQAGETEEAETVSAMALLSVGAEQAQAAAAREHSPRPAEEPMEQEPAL
Sequence of Histone deacetylase 4 (P56524 whole entry): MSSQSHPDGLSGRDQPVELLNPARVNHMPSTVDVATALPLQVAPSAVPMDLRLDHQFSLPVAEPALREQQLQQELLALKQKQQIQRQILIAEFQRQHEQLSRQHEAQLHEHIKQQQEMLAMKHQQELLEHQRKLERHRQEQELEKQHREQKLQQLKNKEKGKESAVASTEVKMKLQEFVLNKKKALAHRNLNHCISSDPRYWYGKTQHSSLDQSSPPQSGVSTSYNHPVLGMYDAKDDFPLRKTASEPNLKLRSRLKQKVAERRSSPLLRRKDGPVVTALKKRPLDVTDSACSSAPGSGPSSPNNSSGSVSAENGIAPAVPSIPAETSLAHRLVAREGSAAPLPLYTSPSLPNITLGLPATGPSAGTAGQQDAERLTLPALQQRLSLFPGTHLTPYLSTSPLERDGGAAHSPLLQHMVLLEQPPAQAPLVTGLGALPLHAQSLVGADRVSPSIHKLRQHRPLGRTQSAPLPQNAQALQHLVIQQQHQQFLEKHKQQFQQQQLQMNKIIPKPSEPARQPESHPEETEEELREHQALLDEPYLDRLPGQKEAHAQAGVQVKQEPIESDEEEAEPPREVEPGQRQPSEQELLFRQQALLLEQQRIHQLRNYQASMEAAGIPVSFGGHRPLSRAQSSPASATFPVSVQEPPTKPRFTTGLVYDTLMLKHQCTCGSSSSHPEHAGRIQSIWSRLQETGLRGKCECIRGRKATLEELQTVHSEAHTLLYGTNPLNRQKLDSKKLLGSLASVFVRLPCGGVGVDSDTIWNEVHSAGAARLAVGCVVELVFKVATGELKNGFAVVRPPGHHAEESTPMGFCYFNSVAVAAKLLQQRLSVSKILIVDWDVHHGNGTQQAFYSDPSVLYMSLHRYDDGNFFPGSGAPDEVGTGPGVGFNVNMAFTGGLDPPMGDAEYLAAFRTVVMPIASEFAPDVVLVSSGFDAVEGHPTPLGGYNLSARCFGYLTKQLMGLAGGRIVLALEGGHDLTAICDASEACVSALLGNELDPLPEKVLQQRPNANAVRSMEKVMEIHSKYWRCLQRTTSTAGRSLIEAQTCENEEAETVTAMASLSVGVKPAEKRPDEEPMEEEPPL
Sequence of Histone deacetylase 2 (Q92769 whole entry): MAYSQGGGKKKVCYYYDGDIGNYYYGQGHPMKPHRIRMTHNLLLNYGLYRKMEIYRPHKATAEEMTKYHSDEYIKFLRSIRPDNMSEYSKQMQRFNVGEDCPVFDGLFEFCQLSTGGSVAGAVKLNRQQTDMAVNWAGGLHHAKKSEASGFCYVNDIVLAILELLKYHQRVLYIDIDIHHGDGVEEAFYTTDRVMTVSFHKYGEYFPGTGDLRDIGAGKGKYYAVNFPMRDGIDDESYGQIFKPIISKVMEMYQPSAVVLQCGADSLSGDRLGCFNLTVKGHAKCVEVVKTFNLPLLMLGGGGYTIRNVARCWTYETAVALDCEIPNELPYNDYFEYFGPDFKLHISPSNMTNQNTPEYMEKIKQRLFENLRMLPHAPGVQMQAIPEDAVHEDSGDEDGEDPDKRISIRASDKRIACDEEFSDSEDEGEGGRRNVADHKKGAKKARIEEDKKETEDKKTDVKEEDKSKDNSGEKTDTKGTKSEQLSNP
Sequence of Histone deacetylase 3 (O15379 whole entry): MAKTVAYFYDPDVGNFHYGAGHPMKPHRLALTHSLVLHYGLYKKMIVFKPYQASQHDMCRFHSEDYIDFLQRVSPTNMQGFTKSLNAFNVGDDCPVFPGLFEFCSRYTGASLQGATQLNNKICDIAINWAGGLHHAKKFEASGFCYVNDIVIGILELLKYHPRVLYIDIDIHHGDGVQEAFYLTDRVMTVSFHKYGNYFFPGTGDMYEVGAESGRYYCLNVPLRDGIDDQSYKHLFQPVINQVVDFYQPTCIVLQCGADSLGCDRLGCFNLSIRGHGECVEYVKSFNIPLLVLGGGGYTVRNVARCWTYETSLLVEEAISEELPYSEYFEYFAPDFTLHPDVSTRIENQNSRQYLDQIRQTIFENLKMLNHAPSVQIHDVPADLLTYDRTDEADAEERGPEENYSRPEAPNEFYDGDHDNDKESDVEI

NC(=S)NC(=O)CCCCCC(=O)Nc1ccccc1
IC50 [1]: 24.1 µM | IC50 [2]: 24.1 µM | inhibition (INH) [3]: < 12%

CN(C)CCNC(=O)C(=O)CCCCCCOc1ccc(-c2ccccc2)cc1
IC50 [4]: > 50 µM

C[Si](O)(O)CCCCCCC(=O)Nc1ccccc1
IC50 [5]: 6 µM | IC50 [6]: > 100 µM | IC50 [7]: > 100 µM | IC50 [8]: > 100 µM | IC50 [9]: 18 µM | IC50 [10]: 0.6 µM | IC50 [11]: 27 µM | IC50 [12]: 5 µM | IC50 [13]: 57 µM

NCC(=O)NCCCCCC(=O)Nc1ccccc1
IC50 [14]: > 100 µM

O=C(CO)NCCCCCC(=O)Nc1ccccc1
IC50 [14]: > 100 µM

C[C@H](O)C(=O)CCCCCCC(=O)Nc1ccccc1
IC50 [14]: 77.1 µM | IC50 [9]: > 300 µM

CN(C)C(=O)C(=O)CCCCCCOc1ccc(-c2ccccc2)cc1
IC50 [4]: > 5 µM

O=C(O)CNC(=O)C(=O)CCCCCCOc1ccc(-c2ccccc2)cc1
IC50 [4]: > 50 µM

CCC(=O)CCCCCCC(=O)Nc1ccccc1
IC50 [14]: > 100 µM | IC50 [9]: > 300 µM

C=C1N[C@@](C)(CC)C(=O)N[C@@H](Cc2ccccc2)C(=O)N2C[C@@H](C)C[C@@H]2C(=O)N[C@H]1CCCCCC(=O)[C@@H](C)O
IC50 [15]: 0.0286 µM

NC(=S)NC(=O)CCCCC(=O)Nc1ccccc1
IC50 [1]: 30.4 µM | IC50 [2]: 30.4 µM | inhibition (INH) [3]: < 12%

O=C(CCCCCCNCCS)Nc1ccccc1
IC50 [14]: > 100 µM

O=C(CCCCCCOP(=O)([O-])[O-])Nc1ccccc1.[K+].[K+]
IC50 [14]: 3900 µM

COc1cccc(NC(=O)CCCCCC(=O)Nc2ccccc2)c1
IC50 [14]: > 1000 µM

O=C(c1ccc(C(=O)C(F)(F)C(F)(F)F)s1)N1CCc2ccccc21
IC50 [16]: 4.2 µM | IC50 [10]: 2.9 µM

O=C(CCCCOP(=O)([O-])[O-])Nc1ccccc1.[K+].[K+]
IC50 [14]: 2200 µM

O=C(CCCCNP(=O)([O-])[O-])Nc1ccccc1.[K+].[K+]
IC50 [14]: 360 µM

CCNC(=O)C(=O)CCCCCCOc1ccc(-c2ccccc2)cc1
IC50 [4]: 4.9 µM

CC(=O)O[C@H](C)C(=O)CCCCCCC(=O)Nc1ccccc1
IC50 [14]: 63.8 µM | IC50 [9]: > 300 µM

CNC(=O)/C(CCCCCCC(=O)Nc1ccccc1)=N\O
IC50 [17]: 22 µM

O=C(CCCCCNP(=O)([O-])[O-])Nc1ccccc1.[K+].[K+]
IC50 [14]: 70 µM

CNC(=O)C(=O)CCCCCCOc1ccc(-c2ccccc2)cc1
IC50 [4]: 0.11 µM

O=C(CCCCCCC(=O)Nc1ccccc1)NO [VORINOSTAT]
pKa [18]: 9.4

O=C(CCCCCOP(=O)([O-])[O-])Nc1ccccc1.[K+].[K+]
IC50 [14]: 60 µM

O=C(CCCCCCNP(=O)([O-])[O-])Nc1ccccc1.[K+].[K+]
IC50 [14]: 490 µM

CCN(CC)C(=S)SSCCCCCC(=O)Nc1ccccc1
IC50 [16]: 0.046 µM | IC50 [5]: 0.18 µM | IC50 [14]: 0.7 µM | IC50 [9]: 0.068 µM | IC50 [12]: 0.14 µM

NC(=O)C(=O)CCCCCCOc1ccc(-c2ccccc2)cc1
IC50 [4]: > 50 µM

C[C@@H](O)C(=O)CCCCCCC(=O)Nc1ccccc1
IC50 [19]: > 33 µM | IC50 [14]: 8.9 µM | IC50 [9]: > 300 µM

O=C(CCCCCOP([O-])([O-])=S)Nc1ccccc1.[K+].[K+]
IC50 [14]: 50 µM

C[S+]([O-])CCCCCCC(=O)Nc1ccccc1 (centres undefined)
IC50 [14]: 48 µM

O=C(CCCCCCC(=O)C(F)(F)F)Nc1ccccc1
IC50 [6]: 0.04 µM | IC50 [7]: 0.04 µM | IC50 [20]: 5.9 µM | IC50 [9]: 2.2 µM | IC50 [11]: 1.7 µM | IC50 [12]: 19 µM | IC50 [13]: 100 µM
